From publication PMC4033643 (Chemical research in toxicology, 2014)

Columns and labels:
[1] = biological target: T1, thioredoxin reductase 1 (TrxR1) (Rattus norvegicus, UniProt O89049); assay: DTNB reduction assay with purified NADPH-reduced enzyme; assay type: biochemical
T1 sequence (O89049 1-499): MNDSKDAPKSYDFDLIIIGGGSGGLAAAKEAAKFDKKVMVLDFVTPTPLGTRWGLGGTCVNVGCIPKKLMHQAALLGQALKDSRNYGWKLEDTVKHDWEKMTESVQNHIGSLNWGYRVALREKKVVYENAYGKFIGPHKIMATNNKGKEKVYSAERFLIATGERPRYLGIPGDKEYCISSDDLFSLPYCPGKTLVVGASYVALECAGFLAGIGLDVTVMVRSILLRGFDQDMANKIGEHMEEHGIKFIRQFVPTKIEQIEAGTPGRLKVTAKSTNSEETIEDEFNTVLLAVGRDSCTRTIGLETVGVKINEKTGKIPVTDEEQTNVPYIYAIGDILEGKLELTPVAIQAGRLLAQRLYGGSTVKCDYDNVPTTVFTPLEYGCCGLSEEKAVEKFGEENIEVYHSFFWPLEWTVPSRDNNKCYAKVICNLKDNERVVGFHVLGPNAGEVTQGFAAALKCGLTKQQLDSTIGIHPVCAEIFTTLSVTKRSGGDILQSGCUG

[2] = biological target: T2, human TrxR1 Sec498Cys mutant enzyme (Homo sapiens, UniProt Q16881, U648C); assay: DTNB reduction assay with recombinant mutant enzyme; assay type: biochemical
T2 sequence (Q16881 151-649 U648C): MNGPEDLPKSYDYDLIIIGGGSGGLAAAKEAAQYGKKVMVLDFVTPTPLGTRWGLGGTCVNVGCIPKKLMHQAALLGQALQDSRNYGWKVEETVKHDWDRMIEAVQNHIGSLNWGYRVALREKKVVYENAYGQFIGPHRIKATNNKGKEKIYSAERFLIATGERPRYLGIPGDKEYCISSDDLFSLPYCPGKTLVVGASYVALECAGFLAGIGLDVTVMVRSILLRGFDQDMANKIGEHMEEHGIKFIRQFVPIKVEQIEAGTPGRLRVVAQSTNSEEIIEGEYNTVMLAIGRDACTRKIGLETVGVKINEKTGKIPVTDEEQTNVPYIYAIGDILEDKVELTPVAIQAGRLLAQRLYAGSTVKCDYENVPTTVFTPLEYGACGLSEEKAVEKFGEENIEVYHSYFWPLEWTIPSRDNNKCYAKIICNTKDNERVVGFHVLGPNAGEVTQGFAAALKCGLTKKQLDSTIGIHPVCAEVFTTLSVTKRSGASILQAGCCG

CC(=O)N=C1C=CC(=O)C=C1 [NAPQI, N-acetyl-p-benzoquinone imine]
IC50 [1]: 23 nM | IC50 [2]: 17 µM
